Experimental data: US9266876B2 (Actelion Pharmaceuticals Ltd., priority 2012, dated 2016)

How the values were obtained:
tumor cells = conditions: administration of AMG487; Pradelli, E. et al. Int J Cancer 2009, 125, 2586; cited from earlier work
CXCR3 = CXCR3 (Homo sapiens (Human), UniProt P49682); assay: Receptor internalization assay; assay type: cell-based; conditions: human whole blood; final CXCL10 concentration 9 nM; 30 min 37° C.; CXCR3 cell surface expression on CD3 positive cells, flow cytometer; read-out: Internalization IC50
Procedure, shortened: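 In human whole blood, compounds were incubated with CXCL10 (9 nM final) for 30 min at 37 °C to drive receptor internalization, then stained with anti-CXCR3/CD3 antibodies and lysed of red cells. Flow cytometry measured mean surface CXCR3 fluorescence on CD3+ cells, and IC50 came from single-site dose-response fits.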

human CXCR3A = human CXCR3A (Homo sapiens (Human), UniProt P49682); assay: FLIPR assay; assay type: cell-based; conditions: CHO-K1 cells expressing the human CXCR3A coupled to Galpha(16); CXCL10 agonist 20 nM; Fluo-4-AM fluorescence; mean values if determined several times
Procedure, shortened: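 CHO-K1 cells expressing CXCR3A coupled to Gα16 were loaded with Fluo-4-AM for 1 h in Hepes-buffered HBSS, pH 7.4, with 5 mM probenecid. Compound dilutions were added on the FLIPR, followed by CXCL10 (added as a 20 nM solution). Baseline-subtracted peak fluorescence was fitted to a single-site curve for IC50.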

Chain of CXCR3 (P49682 whole entry): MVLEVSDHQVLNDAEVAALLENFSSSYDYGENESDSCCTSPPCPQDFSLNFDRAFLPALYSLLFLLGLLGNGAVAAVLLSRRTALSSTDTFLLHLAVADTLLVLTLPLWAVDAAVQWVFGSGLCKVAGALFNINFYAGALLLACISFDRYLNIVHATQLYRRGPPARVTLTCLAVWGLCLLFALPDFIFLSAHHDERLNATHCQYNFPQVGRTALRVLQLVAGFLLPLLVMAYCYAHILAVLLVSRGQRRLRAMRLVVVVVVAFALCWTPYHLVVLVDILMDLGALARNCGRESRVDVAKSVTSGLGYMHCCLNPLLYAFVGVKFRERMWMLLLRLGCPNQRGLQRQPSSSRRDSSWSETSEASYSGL
Chain of human CXCR3A (P49682 whole entry): as above

Row | IC50 (CXCR3) | IC50 (human CXCR3A) | SMILES | metastasis of tumor cells to the lungs (tumor cells)
1 | – | – | CCOc1ccc(-n2c([C@@H](C)N(Cc3cccnc3)C(=O)Cc3ccc(OC(F)(F)F)cc3)nc3ncccc3c2=O)cc1 [AMG487] | could limit the metastasis of tumor cells to the lungs
2 | 119 nM | 1 nM | C[C@@H]1CN(c2sc(C(F)(F)F)nc2-c2nc3ccccc3[nH]2)CCN1C(=O)Cn1c(=O)[nH]c2cccnc21 [Example 104, 3-(2-{(R)-4-[4-(1H-Benzoimidazol-2-yl)-2-trifluoromethyl-thiazol-5-yl]-2-methyl-piperazin-1-yl}-2-oxo-ethyl)-1,3-dihydro-imidazo[4,5-b]pyridin-2-one] | –
3 | 933 nM | 2 nM | Cc1nc(-c2nc3ccccc3[nH]2)c(N2CCN(C(=O)Cn3cnc4cccnc43)[C@H](C)C2)s1 [Example 144, 1-{(R)-4-[4-(1H-Benzoimidazol-2-yl)-2-methyl-thiazol-5-yl]-2-methyl-piperazin-1-yl}-2-imidazo[4,5-b]pyridin-3-yl-ethanone] | –
4 | 111 nM | 0.1 nM | Cc1ccnn1CC(=O)N1CCN(c2sc(C(F)(F)F)nc2-c2nc3ccccc3[nH]2)C[C@H]1C [Example 176, 1-{(R)-4-[4-(1H-Benzoimidazol-2-yl)-2-trifluoromethyl-thiazol-5-yl]-2-methyl-piperazin-1-yl}-2-(5-methyl-pyrazol-1-yl)-ethanone] | –
5 | 352 nM | 2 nM | C[C@@H]1CN(c2scnc2-c2nc3ccccc3[nH]2)CCN1C(=O)Cn1ccc2ccnc(Cl)c21 [Example 142, 1-{(R)-4-[4-(1H-Benzoimidazol-2-yl)-thiazol-5-yl]-2-methyl-piperazin-1-yl}-2-(7-chloro-pyrrolo[2,3-c]pyridin-1-yl)-ethanone] | –
6 | 2610 nM | 15 nM | O=C(Cn1ccc2ccccc21)N1CCN(c2scnc2-c2nc3ccccc3[nH]2)CC1 [Example 4, 1-{4-[4-(1H-Benzoimidazol-2-yl)-thiazol-5-yl]-piperazin-1-yl}-2-indol-1-yl-ethanone] | –
7 | 1760 nM | 2 nM | C[C@@H]1CN(c2sc(C(F)(F)F)nc2-c2nc3ccccc3[nH]2)CCN1C(=O)Cn1cc(-c2ccccc2)nn1 [Example 189, 1-{(R)-4-[4-(1H-Benzoimidazol-2-yl)-2-trifluoromethyl-thiazol-5-yl]-2-methyl-piperazin-1-yl}-2-(4-phenyl-[1,2,3]triazol-1-yl)-ethanone] | –
8 | 306 nM | 3 nM | C[C@@H]1CN(c2scnc2-c2nc3ccccc3[nH]2)CCN1C(=O)Cn1cc2cccnc2n1 [Example 116, 1-{(R)-4-[4-(1H-Benzoimidazol-2-yl)-thiazol-5-yl]-2-methyl-piperazin-1-yl}-2-pyrazolo[3,4-b]pyridin-2-yl-ethanone] | –
9 | 723 nM | 1 nM | C[C@@H]1CN(c2scnc2-c2nc3ccccc3[nH]2)CCN1C(=O)Cn1cc(Cl)c2cccnc21 [Example 143, 1-{(R)-4-[4-(1H-Benzoimidazol-2-yl)-thiazol-5-yl]-2-methyl-piperazin-1-yl}-2-(3-chloro-pyrrolo[2,3-b]pyridin-1-yl)-ethanone] | –
10 | 140 nM | 1 nM | COC(=O)c1ccc2[nH]c(-c3nc(C(F)(F)F)sc3N3CCN(C(=O)Cn4cnc5cccnc54)[C@H](C)C3)nc2c1 [Example 167, 2-{5-[(R)-4-(2-Imidazo[4,5-b]pyridin-3-yl-acetyl)-3-methyl-piperazin-1-yl]-2-trifluoromethyl-thiazol-4-yl}-1H-benzoimidazole-5-carboxylic acid methyl ester] | –
11 | 4090 nM | 55 nM | CC(O)c1nc(-c2nc3ccccc3[nH]2)c(N2CCN(C(=O)Cn3ccc4cccnc43)CC2)s1 (racemic) [Example 43, rac-1-{4-[4-(1H-Benzoimidazol-2-yl)-2-(1-hydroxy-ethyl)-thiazol-5-yl]-piperazin-1-yl}-2-pyrrolo[2,3-b]pyridin-1-yl-ethanone] | –
12 | 1490 nM | 4 nM | Cc1c(Cl)ccc2nc(-c3ncsc3N3CCN(C(=O)Cn4c(=O)n(C)c5ccccc54)CC3)[nH]c12 [Example 37, 1-(2-{4-[4-(6-Chloro-7-methyl-1H-benzoimidazol-2-yl)-thiazol-5-yl]-piperazin-1-yl}-2-oxo-ethyl)-3-methyl-1,3-dihydro-benzoimidazol-2-one] | –
13 | 1080 nM | 1 nM | C[C@@H]1CN(c2sc(C(F)(F)F)nc2-c2nc3cncnc3[nH]2)CCN1C(=O)Cn1cnc2cccnc21 [Example 171, 2-Imidazo[4,5-b]pyridin-3-yl-1-{(R)-2-methyl-4-[4-(9H-purin-8-yl)-2-trifluoromethyl-thiazol-5-yl]-piperazin-1-yl}-ethanone] | –
14 | 210 nM | 1 nM | C[C@@H]1CN(c2sc(C(F)(F)F)nc2-c2nc3ccccc3[nH]2)CCN1C(=O)Cn1ccc(C(F)(F)F)n1 [Example 193, 1-{(R)-4-[4-(1H-Benzoimidazol-2-yl)-2-trifluoromethyl-thiazol-5-yl]-2-methyl-piperazin-1-yl}-2-(3-trifluoromethyl-pyrazol-1-yl)-ethanone] | –
15 | 703 nM | 2 nM | C[C@@H]1CN(c2sc(C(F)(F)F)nc2-c2nc3ccc(N(C)C)cc3[nH]2)CCN1C(=O)Cn1cccn1 [Example 180, 1-{(R)-4-[4-(6-Dimethylamino-1H-benzoimidazol-2-yl)-2-trifluoromethyl-thiazol-5-yl]-2-methyl-piperazin-1-yl}-2-pyrazol-1-yl-ethanone] | –
16 | 73 nM | 1 nM | C[C@@H]1CN(c2sc(C(F)(F)F)nc2-c2nc3ccccc3[nH]2)CCN1C(=O)Cn1cnc2ccccc21 [Example 172, 2-Benzoimidazol-1-yl-1-{(R)-4-[4-(1H-benzoimidazol-2-yl)-2-trifluoromethyl-thiazol-5-yl]-2-methyl-piperazin-1-yl}-ethanone] | –
17 | 111 nM | 1 nM | CC(O)c1ccc2[nH]c(-c3nc(C(F)(F)F)sc3N3CCN(C(=O)Cn4cnc5cccnc54)[C@H](C)C3)nc2c1 (stereo partly drawn) [Example 166, 1-((R)-4-{4-[5-(1-Hydroxy-ethyl)-1H-benzoimidazol-2-yl]-2-trifluoromethyl-thiazol-5-yl}-2-methyl-piperazin-1-yl)-2-imidazo[4,5-b]pyridin-3-yl-ethanone] | –
18 | 373 nM | 1 nM | Cc1ncn(CC(=O)N2CCN(c3sc(C(F)(F)F)nc3-c3nc4ccccc4[nH]3)C[C@H]2C)n1 [Example 213, 1-{(R)-4-[4-(1H-Benzoimidazol-2-yl)-2-trifluoromethyl-thiazol-5-yl]-2-methyl-piperazin-1-yl}-2-(3-methyl-[1,2,4]triazol-1-yl)-ethanone] | –
19 | 6620 nM | 37 nM | COCCn1c(-c2nc(C(F)(F)F)sc2N2CCN(C(=O)Cn3cccn3)[C@H](C)C2)nc2ccccc21 [Example 185, 1-((R)-4-{4-[1-(2-Methoxy-ethyl)-1H-benzoimidazol-2-yl]-2-trifluoromethyl-thiazol-5-yl}-2-methyl-piperazin-1-yl)-2-pyrazol-1-yl-ethanone] | –

Row | SMILES | IC50 (CXCR3) | IC50 (human CXCR3A) | metastasis of tumor cells to the lungs (tumor cells)
20 | C[C@@H]1CN(c2sc(C(F)(F)F)nc2-c2nc3ccccc3[nH]2)CCN1C(=O)Cn1cc(C2CCN(C)CC2)cn1 [Example 222, 1-{(R)-4-[4-(1H-Benzoimidazol-2-yl)-2-trifluoromethyl-thiazol-5-yl]-2-methyl-piperazin-1-yl}-2-[4-(1-methyl-piperidin-4-yl)-pyrazol-1-yl]-ethanone] | 1500 nM | 16 nM | –
21 | Cc1nc(C)n(CC(=O)N2CCN(c3sc(C(F)(F)F)nc3-c3nc4ccc(OC5CNC5)cc4[nH]3)C[C@H]2C)n1 [Example 242, 1-((R)-4-{4-[6-(Azetidin-3-yloxy)-1H-benzoimidazol-2-yl]-2-trifluoromethyl-thiazol-5-yl}-2-methyl-piperazin-1-yl)-2-(3,5-dimethyl-[1,2,4]triazol-1-yl)-ethanone] | 438 nM | 4 nM | –
